Measured values taken from PubChem BioAssay (NCI).
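A five-concentration, 48-hour dose response in 96-well plates underlies each endpoint, interpolated linearly between surrounding concentrations. Abbreviation: GI50, concentration required for 50% inhibition of growth. TGI denotes the concentration required for complete inhibition of growth.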

How the values were obtained:
Assay in all cases: growth of human tumour cells (NCI), 48 h
[1] = tested on: SK-MEL-2 melanoma
[2] = tested on: HCC-2998 colon
[3] = tested on: SN12C renal
[4] = tested on: HCT-15 colon
[5] = tested on: SW-620 colon
[6] = tested on: COLO 205 colon
[7] = tested on: K-562 leukemia
[8] = tested on: LOX IMVI melanoma
[9] = tested on: A549 NSCLC
[10] = tested on: CAKI-1 renal

SMILES	TGI [1] [µM]	TGI [2] [µM]	TGI [3] [µM]	TGI [4] [µM]	TGI [5] [µM]	TGI [6] [µM]	TGI [7] [µM]	TGI [8] [µM]	TGI [9] [µM]	TGI [10] [µM]	GI50 [2] [µM]	GI50 [3] [µM]	GI50 [4] [µM]	GI50 [5] [µM]	GI50 [6] [µM]	GI50 [8] [µM]	GI50 [9] [µM]	GI50 [10] [µM]
N=C1SCCS1	> 100	> 100	> 100	> 100	> 100	> 100	> 100	> 100	> 100	> 100								
Nc1cccc2cc(S(=O)(=O)Nc3ccc(C(=O)O)cc3)ccc12	> 100	> 100	> 100	> 100	> 100	> 100	> 100	> 100	> 100	> 100								
CC(C)=CCC/C(C)=C/CC/C(C)=C/C(O)c1ccccc1 (stereo not given)	34.9		33.9	32.8	38.8	35.6	> 100	35.9		> 10								
O=C1c2ccccc2-c2ccc(N(Cc3ccc(Br)cc3)Cc3ccc(Br)cc3)cc21	> 100	> 100	> 100	> 100	> 100	> 100	> 100	> 100	> 100	> 100								
O=C(c1no[n+]([O-])c1C(=O)c1csc2ccccc12)c1csc2ccccc12	20.7	18.4	12.1	21.7	5.85	9	3.73	5.37	35.7	2.23								
CC(=O)NC1C(OCc2ccccc2)OC(CO)C(O)C1OC(C)C(=O)NC(C(=O)NC(CCC(=O)Nc1ccc2c(c1)CN1C(=O)c3ccccc3C1=N2)C(N)=O)C(C)C (stereo not given)	> 100	> 100	> 100	> 100	> 100	> 100	> 100	> 100	> 100	> 100								
NC(=O)OCc1c(O)c2c(c(O)c1COC(N)=O)C(=O)C=CC2=O	> 100	> 100	> 100	> 100	> 100	> 100	> 100		> 100	> 100								
CC(=O)Nc1ccc2c(c1)C(=Nc1ccc(C(=O)O)cc1)c1ccccc1-2		> 100	> 100	> 100	> 100	> 100	> 100	> 100	> 100	> 100								
CCOC(=O)c1c(C)n(-c2ccc(C)cc2)c2c1cc(O)c1[nH]c3c(c12)CCCC3	33.7	34.1	> 100	> 100	39	> 100	48.8	30.2	> 100	> 100								
CC(C)c1cccc(C(C)C)c1NC(=S)Nc1ccccc1	> 100	> 100	> 100	> 100	> 100	> 100	> 100	> 100	> 100									
O=C1C(c2c(O)n(-c3ccccc3)c3ccccc23)=Nc2ccccc21	97.3	75.5	> 100	> 100	> 100	66.3	> 100	> 100	> 100	> 100								
CSc1nc(NC2OC(CO)C(O)C(O)C2O)c(N)c(=O)n1C (stereo not given)	> 100	> 100	> 100	> 100	> 100	> 100	> 100	> 100	> 100									
CCCCC[C@H]1CC=CC(=O)O1	19.1	19.7	23.8	20.9	18.7	15.1	> 100	18.1	60.5	10.4								
CCCCCCCCCCCCCCCc1ccc(C(=O)C[n+]2ccccc2)cc1		2.55	2.13	2.56	1.54	1.67		1.19	2.03	3.45	1.27	0.756	1.03	0.394	0.475	0.348	0.731	1.01
